Columns and labels:
[1] = tested on: patients with temporary sleep disturbance; assay: Clinical trial: wrist actimetry (SDI, time to sleep onset); assay type: in vivo, human; set-up: SDI compared to placebo: dose or concentration left out as unconfirmed
From the text: The efficacy of triprolidine in enabling a patient to feel refreshed or alert upon waking after taking triprolidine prior to sleeptime was investigated using patients with a history of sleep disorders and utilising triprolidine prepared in accordance with example 1.
(§1) The study herein utilised the following determination methods:— • (a) Karolinska scale as defined in: Int. J. Neuroscience 52 29-37 (1990); and—validation: Sleep 17 (3) 236-41 (1994) • (b) Loughborough Sleep log as defined in: Sleep 17 (2) 146-159 (1994); and • Sleep 18 (2) 127-134 (1995) • (c) Actimetry—AW4 actimeters (Cambridge Neurotechnology) were worn continuously throughout the study. A button was pressed at night when the subject desired to go to sleep and again in the morning upon waking. The results of the actimeter study were analysed in the manner defined by Horne et al (Sleep, 17(2); 146-159). SDI % was calculated as follows:— SDI=Number of 30 second epochs with movement×100 • Number of 30 second epochs from total time spent in bed This is the measure of: • 1. The length of time it took to fall asleep • 2. Any awakenings throughout the sleep period • Expressed as a % of total time spent in bed. Study Objectives • To evaluate the effects of two doses of triprolidine compared with placebo. Study Design […]
Male and Female candidates aged 18 years and above were recruited to one of five research centres by means of local advertising. […]
In the trial, patients were tested during a seven day period and the results have been analysed for a mean of three days in the middle of this period. […]
(§2) Generally the treatment groups were well balanced in terms of the demographic data. Unless otherwise mentioned all group data was analysed using ANOVA. In two cases, namely, how the patient felt 15 minutes after awakening in the Loughborough Sleep Log and the Karolinska Sleepiness Scale at 20 minutes, the two variables were analysed using ANCOVA by including the weekend and the mean of Friday/Saturday/Sunday night as a covariate. […]

[2] = tested on: patients with temporary sleep disturbance; assay: Clinical trial: Karolinska 9-point sleepiness scale; assay type: in vivo, human
From the text: The study herein utilised the following determination methods:— • (a) Karolinska scale as defined in: Int. J. Neuroscience 52 29-37 (1990); and—validation: Sleep 17 (3) 236-41 (1994) • (b) Loughborough Sleep log as defined in: Sleep 17 (2) 146-159 (1994); and • Sleep 18 (2) 127-134 (1995) • (c) Actimetry—AW4 actimeters (Cambridge Neurotechnology) were worn continuously throughout the study. A button was pressed at night when the subject desired to go to sleep and again in the morning upon waking. The results of the actimeter study were analysed in the manner defined by Horne et al (Sleep, 17(2); 146-159). SDI % was calculated as follows:— SDI=Number of 30 second epochs with movement×100 • Number of 30 second epochs from total time spent in bed This is the measure of: • 1. The length of time it took to fall asleep • 2. Any awakenings throughout the sleep period • Expressed as a % of total time spent in bed. Study Objectives • To evaluate the effects of two doses of triprolidine compared with placebo. Study Design
A multiple-dose, placebo-controlled, parallel-group, double-blind, randomised study investigating the effects of 2.5 mg and 5 mg triprolidine in patients with temporary sleep disturbance.
Male and Female candidates aged 18 years and above were recruited to one of five research centres by means of local advertising. Candidates were screened by means of a telephone questionnaire and selected candidates invited for interview at the research centre. Key inclusion criteria used to select candidates for the study were: • A record of poor sleep at least 2 nights per week • A record of poor sleep for at least 1 week but not more than 3 months • Sleep disturbance not caused by underlying disease • No excess use of alcohol or drugs • Sleep disturbance affected daytime functioning
The candidates came to the research centre on Thursday or Friday and were fitted with a wrist actimeter (AW4 from Cambridge Technology) to establish a baseline measure for SDI and were provided with diary cards to record subjective assessments for the Loughborough Sleep Log and the Karolinska Sleepiness Scale. They returned to the investigational site on the Monday and were issued with the study compositions (2.5 mg triprolidine, 5 mg triprolidine or placebo). […]
as §2

volunteers = conditions: single doses 10 mg or 20 mg sustained release at bedtime; cited from earlier work
[3] = tested on: patients with temporary sleep disturbance; assay: Clinical trial: Loughborough sleep log (subjective); assay type: in vivo, human; set-up: dose or concentration left out as unconfirmed; conditions: mean of the 3 nights, p<0.05
From the text: as §1
Candidates were required to complete a questionnaire 15 minutes after awaking on the feeling of refreshedness assessed on a 5-point scale, the Loughborough sleep log.
Generally the treatment groups were well balanced in terms of the demographic data. Unless otherwise mentioned all group data was analysed using ANOVA. […]

[4] = both treatments (2.5 mg and 5 mg), every treatment night
[5] = 2.5 mg triprolidine, mean of the 3 nights

## Cc1ccc(/C(=C\CN2CCCC2)c2ccccn2)cc1 [triprolidine]
[1]; [4]
  SDI as compared with placebo: reduced
  sleep latency onset as compared with placebo: reduced
[1]; triprolidine, mean of the 3 nights, p<0.01
  SDI compared to placebo: significantly reduced
[2]; [5]
  percentage of people feeling alert, very alert or extremely alert on waking vs placebo (Karolinska log): greater percentage
  percentage of people feeling sleepy, some effort, or very sleepy, great effort to keep awake on waking vs placebo (Karolinska log): lower percentage
  residual hangover effects/morning grogginess: no evidence of residual hangover effects/morning grogginess
[2]; either dose of triprolidine
  daytime sleepiness: lack of daytime sleepiness
volunteers
  sleep onset latency (time required to fall asleep) compared with placebo: did not significantly alter
  total sleep time compared with placebo: no effect
  wakefulness during sleep compared with placebo: no effect
[3]
  feeling of refreshedness 15 minutes after waking vs placebo (Loughborough sleep log): more refreshed

From patent US20070026051A1, “Use of tripolidine in providing refreshedness on waking” (priority 2003, published 2007)
